{"source": "paper PMC3984115", "about": "(PLoS ONE, 2014)", "key": {"[1]": {"system": "nAChRs in monkey adrenal chromaffin cells", "test": "Agonist-evoked currents, perforated-patch patch-clamp, monkey adrenal chromaffin cells", "format": "cell-based, monkey (Macaca mulatta)", "settings": "for current amplitude (choline comparison cells): 10 mM choline versus 300 μM ACh in the same cells"}, "[2]": {"system": "heteromeric receptor subtypes that contain the β2 subunit", "set-up": "method as in PMID 10692507", "settings": "β2-containing heteromeric receptors; ref [38]; cited from earlier work"}, "human α6/α3β4 nAChR": {"target": "T1, human α6/α3β4 nAChR (Homo sapiens, UniProt P30926+P32297+Q15825)", "T1 construct": "expressed in transfected cells; host or cells: Xenopus laevis oocytes (cRNA injection, 1:1 ratio)", "T1 sequence (P30926 whole entry, looked up)": "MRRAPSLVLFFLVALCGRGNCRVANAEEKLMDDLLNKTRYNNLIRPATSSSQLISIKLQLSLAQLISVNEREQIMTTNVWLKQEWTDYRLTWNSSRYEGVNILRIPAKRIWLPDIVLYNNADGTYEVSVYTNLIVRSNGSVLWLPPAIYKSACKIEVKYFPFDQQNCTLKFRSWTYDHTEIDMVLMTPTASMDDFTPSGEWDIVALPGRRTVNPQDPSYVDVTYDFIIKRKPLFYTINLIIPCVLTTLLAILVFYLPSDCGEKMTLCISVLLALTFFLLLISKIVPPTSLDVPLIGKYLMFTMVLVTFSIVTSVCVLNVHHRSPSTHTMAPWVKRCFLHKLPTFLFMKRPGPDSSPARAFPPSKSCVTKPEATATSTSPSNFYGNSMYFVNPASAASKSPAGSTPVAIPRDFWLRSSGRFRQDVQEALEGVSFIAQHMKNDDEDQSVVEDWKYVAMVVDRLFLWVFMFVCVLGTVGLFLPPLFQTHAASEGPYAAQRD", "T1 sequence (P32297 whole entry, looked up)": "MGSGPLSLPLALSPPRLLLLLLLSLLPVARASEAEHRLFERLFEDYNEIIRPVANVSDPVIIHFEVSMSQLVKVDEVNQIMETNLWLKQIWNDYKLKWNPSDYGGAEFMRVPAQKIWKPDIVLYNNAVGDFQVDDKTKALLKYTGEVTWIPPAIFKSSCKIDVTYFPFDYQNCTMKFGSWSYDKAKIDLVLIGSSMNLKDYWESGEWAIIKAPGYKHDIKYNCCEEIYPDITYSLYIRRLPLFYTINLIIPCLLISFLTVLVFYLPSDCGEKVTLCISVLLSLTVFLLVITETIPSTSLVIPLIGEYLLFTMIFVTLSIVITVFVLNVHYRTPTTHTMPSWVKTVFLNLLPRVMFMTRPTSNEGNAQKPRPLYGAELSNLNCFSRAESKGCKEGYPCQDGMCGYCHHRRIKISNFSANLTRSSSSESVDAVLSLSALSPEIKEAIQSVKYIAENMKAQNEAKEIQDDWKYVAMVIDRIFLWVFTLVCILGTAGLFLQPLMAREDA", "T1 sequence (Q15825 whole entry, looked up)": "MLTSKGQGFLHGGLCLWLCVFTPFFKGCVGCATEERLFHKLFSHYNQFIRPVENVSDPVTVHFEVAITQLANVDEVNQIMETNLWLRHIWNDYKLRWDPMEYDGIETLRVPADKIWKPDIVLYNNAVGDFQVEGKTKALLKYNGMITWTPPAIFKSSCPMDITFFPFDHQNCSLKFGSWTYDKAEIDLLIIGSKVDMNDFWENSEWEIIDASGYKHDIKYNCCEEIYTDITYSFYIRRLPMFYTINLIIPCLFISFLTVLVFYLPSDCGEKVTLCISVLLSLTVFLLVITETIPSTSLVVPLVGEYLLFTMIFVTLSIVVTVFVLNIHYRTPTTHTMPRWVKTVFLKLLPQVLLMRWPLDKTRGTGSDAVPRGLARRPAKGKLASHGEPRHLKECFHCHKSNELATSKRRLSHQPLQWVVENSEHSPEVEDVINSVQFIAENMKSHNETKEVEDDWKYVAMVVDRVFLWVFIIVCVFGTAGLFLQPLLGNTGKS", "format": "cell-based"}, "[3]": {"system": "release of dopamine from dopaminergic terminals of rat striatal neurons", "settings": "cited from earlier work"}, "[4]": {"system": "release of dopamine from dopaminergic terminals of mouse striatal neurons", "settings": "cited from earlier work"}, "M. mulatta α7 nAChRs": {"system": "M. mulatta α7 nAChRs", "settings": "heterologously expressed M. mulatta α7; ref [37]; cited from earlier work"}}, "note": "“And” between values parts separate entries of the source, which are not always exact repeats. Equal values may be shown once. Read-outs that look alike come from different tables or passages of the source. Where no end group is shown, it is not given here.", "data": [{"compound": "CC(=O)OCC[N+](C)(C)C", "note": "[ACh, acetylcholine]", "values": [{"measurement": "current amplitude (5-I-A-85380 comparison cells)", "setting": "[1]; 100 μM 5-I-A-85380 versus 300 μM ACh in the same cells, n = 4, ± S.E.M.", "value": "657± 97", "unit": "pA"}, {"measurement": "current density", "setting": "[1]; 100 μM 5-I-A-85380 versus 300 μM ACh in the same cells, n = 4, ± S.E.M., difference not statistically significant, p = 0.0625", "value": "149±22", "unit": "pA/pF"}, {"measurement": "peak current amplitude", "setting": "[1]; 300 μM ACh, mean ± S.D.M, n = 18, holding potential −80 mV, 200 ms pulses", "value": "865 ± 387", "unit": "pA"}, {"measurement": "current amplitude (choline comparison cells)", "setting": "[1]; n = 4, ± S.E.M.", "value": "1245±238", "unit": "pA"}]}, {"compound": "Ic1cncc(OC[C@@H]2CCN2)c1", "note": "[5-I-A-85380]", "values": [{"measurement": "efficacy versus 300 μM ACh, in words", "setting": "[1]", "value": "more efficacious than 300 μM ACh"}, {"measurement": "response to agonist, in words", "setting": "[1]", "value": "responded"}, {"measurement": "current amplitude (5-I-A-85380 comparison cells)", "setting": "[1]; n = 4", "value": "1088±120", "unit": "pA"}, {"measurement": "current amplitude relative to ACh (printed \"% larger than the currents evoked by ACh\")", "setting": "[1]; n = 4", "value": "170±16", "unit": "%"}, {"measurement": "current density", "setting": "[1]; n = 4", "value": "256±28", "unit": "pA/pF"}, {"measurement": "affinity in words", "setting": "[2]", "value": "high affinity"}, {"measurement": "current amplitude as % of that produced by 300 μM ACh in the same cells", "setting": "human α6/α3β4 nAChR", "value": "100±12.1% and 100±12%"}, {"measurement": "efficacy versus 300 μM ACh, in words", "setting": "human α6/α3β4 nAChR", "value": "as efficacious as 300 μM ACh"}]}, {"compound": "α-Ctx MII (GCCSNPVCHLEHSNLC; ends and bridges not checked; cysteine pairing not given here; UniProt P56636 49-64, looked up)", "values": [{"measurement": "sensitivity of dopamine release to toxin, in words", "setting": "[3]", "value": "sensitive"}, {"measurement": "sensitivity of dopamine release to toxin, in words", "setting": "[4]", "value": "sensitive"}]}, {"compound": "C[N+](C)(C)CCO", "note": "[choline]", "values": [{"measurement": "current amplitude (choline comparison cells)", "setting": "[1]; n = 4, ± S.E.M.", "value": "21±4", "unit": "pA"}, {"measurement": "current amplitude as % of response evoked by 300 μM ACh in the same cells", "setting": "[1]; 10 mM choline, n = 4, ± S.E.M., holding potential −80 mV", "value": "1.7±0.1", "unit": "%"}, {"measurement": "response to agonist, in words", "setting": "[1]; cells with currents evoked by acetylcholine", "value": "relatively unresponsive"}, {"measurement": "agonist activity in words", "setting": "M. mulatta α7 nAChRs", "value": "full agonist"}]}]}
